# Assay results reported in US5202354A, “Composition and method for reducing acetaldehyde toxicity” (priority 1986, dated 1993).
# Entries after “also recorded” stand apart in the source; their conditions may differ. Structures can show the parent of a compound that is named as a salt.
# Assay: Antagonistic effects on the anesthetic and lethal effects of acetaldehyde in rats
# Type: in vivo
# Conditions: acetaldehyde 1370 mg/kg oral, hydrochloride
# Experimental: Rats (body weights 250-280 g) fasted for 18 hours were previously dosed orally with each of test compositions Formula A to Formula G as shown in below. Control group received a corresponding volume of saline by the same route. After a predetermined time (45-60 min ), acetaldehyde (1370 mg/kg) was orally administered to the rats and the effect of Formula A to Formula G on the anesthetic and lethal effects of acetaldehyde was observed.
# When 1370 mg/kg of acetaldehyde was administered without prior treatment with the test compositions, the rats (control group) fell into anesthesia within several minutes, and then developed dyspnea and the like and 90% of them died within 1 to 6 hours.
# The same experiment as Experimental Example I was carried out with each of test compositions Formula H and I and the results obtained are shown in Table 4.
compound,measurement,value
CC(=C(CCO)SSCC1CCCO1)N(C=O)Cc1cnc(C)nc1N (stereo in doubt) [fursultiamine hydrochloride],antagonizing effect against anesthetic and lethal effects of acetaldehyde (in words),fully effective at the level of addition of 20 mg/kg; also recorded: more effective than thiamine hydrochloride
